Experimental data from patent US6387880B1, “Transdermal N-[N-[5-[4-(aminoiminomethly)phenyl]-1-oxopentyl]-L-α-aspartyl]-L-phenylalainine or its esters and their pharmaceutically acceptable salts” (G.D. Searle & Co., priority 1996, dated 2002).
Values joined by “and” are separate entries in the source; they are usually repeats but may differ in a detail not shown here. Identical values can stand only once.

Assay: Transdermal shaved rat model: radiolabelled compound in gel patch, amount recovered in urine and feces
Conditions: for Mg transported in Feces 24 Hrs / Mg transported in Feces 48 Hrs / Mg transported in Feces 72 Hrs / Mg transported in Urine 24 Hrs / Mg transported in Urine 48 Hrs / Mg transported in Urine 72 Hrs / Mg transported Total (feces + urine) / Mg transported Total, Mean: diethyl ester section, transdermal patch; for Mg transported in Feces 24 Hrs / Mg transported in Feces 48 Hrs / Mg transported in Feces 72 Hrs / Mg transported in Urine 24 Hrs / Mg transported in Urine 48 Hrs / Mg transported in Urine 72 Hrs / Mg transported Total (feces + urine): individual rats; for Mg transported Total (feces + urine): 72 Hrs; for Mg transported Total, Mean: mean of 4 rats

average amount delivered (2.5 cm^2 patch, rat): 4.6 ± 1.9 mg | Mg transported in Feces 24 Hrs (Ethanol): 0.05 Mg and 0.01 Mg (2×) and 0.04 Mg | Mg transported in Urine 24 Hrs (Ethanol): 0.02 Mg and 0.01 Mg and 0.00 Mg (2×) | Mg transported in Urine 72 Hrs (Ethanol): 0.42 Mg and 0.19 Mg and 0.11 Mg (2×) | Mg transported Total, Mean (Ethanol): 4.62 Mg | Mg transported in Feces 24 Hrs (Saline): 0.48 Mg and 0.67 Mg and 0.02 Mg (2×) | Mg transported in Urine 24 Hrs (Saline): 0.19 Mg and 0.17 Mg and 0.00 Mg (2×) | Mg transported Total, Mean (Saline): 3.99 Mg
Compound: CCOC(=O)C[C@H](NC(=O)CCCCc1ccc(C(=N)N)cc1)C(=O)N[C@@H](Cc1ccccc1)C(=O)OCC [N-[N-[5-[4-(aminoiminomethyl)phenyl]-1-oxopentyl]-L-α-aspartyl]-L-phenylalanine, diethyl ester]
Mg transported in Feces 48 Hrs (Ethanol): 3.16 Mg and 2.44 Mg and 4.09 Mg and 1.20 Mg | Mg transported in Feces 72 Hrs (Ethanol): 1.51 Mg and 2.33 Mg and 1.67 Mg and 0.43 Mg | Mg transported in Urine 48 Hrs (Ethanol): 0.27 Mg and 0.12 Mg and 0.16 Mg and 0.13 Mg | Mg transported Total (feces + urine) (Ethanol): 5.43 Mg and 5.10 Mg and 6.07 Mg and 1.88 Mg | Mg transported in Feces 48 Hrs (Saline): 4.59 Mg and 3.88 Mg and 0.61 Mg and 1.21 Mg | Mg transported in Feces 72 Hrs (Saline): 0.84 Mg and 1.17 Mg and 0.49 Mg and 0.67 Mg | Mg transported in Urine 48 Hrs (Saline): 0.20 Mg and 0.16 Mg and 0.15 Mg and 0.13 Mg | Mg transported in Urine 72 Hrs (Saline): 0.09 Mg and 0.11 Mg and 0.05 Mg and 0.10 Mg | Mg transported Total (feces + urine) (Saline): 6.39 Mg and 6.16 Mg and 1.32 Mg and 2.09 Mg
